Source: ChEMBL document CHEMBL4376868, “Structure-Activity Relationship Study of Novel 6-Aryl-2-benzoyl-pyridines as Tubulin Polymerization Inhibitors with Potent Antiproliferative Properties” (J Med Chem, 2020)
The source made the active and inactive calls. No cut-off for these calls is given here.

What was measured:
PC-3 = assay: Antiproliferative activity against human PC3 cells measured after 72 hrs by MTS assay; format: functional, cell-based; details: PC-3, 72 h
[1] = Antiproliferative activity against human PC3/TxR cells measured after 72 hrs by MTS assay; format: functional, cell-based
[2] = Antiproliferative activity against human DU145-TxR cells measured after 72 hrs by MTS assay; format: functional, cell-based
[3] = Antiproliferative activity against human M14/LCC6MDR1 cells measured after 72 hrs by MTS assay; format: functional, cell-based
MDA-MB-231 = assay: Antiproliferative activity against human MDA-MB-231 cells measured after 72 hrs by MTS assay; format: functional, cell-based; details: MDA-MB-231, 72 h
MDA-MB-453 = assay: Antiproliferative activity against human MDA-MB-453 cells measured after 72 hrs by MTS assay; format: functional, cell-based; details: MDA-MB-453, 72 h
SK-BR-3 = assay: Antiproliferative activity against human SK-BR-3 cells measured after 72 hrs by MTS assay; format: functional, cell-based; details: SK-BR-3, 72 h
A-375 [4] = assay: Antiproliferative activity against human A375 cells measured after 72 hrs by MTS assay; format: functional, cell-based; details: A-375, 72 h
M14 = assay: Antiproliferative activity against human M14 cells measured after 72 hrs by MTS assay; format: functional, cell-based; details: M14, 72 h
RPMI-7951 = assay: Antiproliferative activity against human RPMI7951 cells measured after 72 hrs by MTS assay; format: functional, cell-based; details: RPMI-7951, 72 h
[5] = Resistance index, ratio of IC50 for antiproliferative activity against human PC3/TxR cells to IC50 for antiproliferative activity against human PC3 cells; format: functional
DU-145 = assay: Antiproliferative activity against human DU145 cells measured after 72 hrs by MTS assay; format: functional, cell-based; details: DU-145, 72 h
[6] = Resistance index, ratio of IC50 for antiproliferative activity against human DU145-TxR cells to IC50 for antiproliferative activity against human DU145 cells; format: functional
[7] = Resistance index, ratio of IC50 for antiproliferative activity against human M14/LCC6MDR1 cells to IC50 for antiproliferative activity against human M14 cells; format: functional
Tubulin (Sus scrofa) [8] = target: T1, Tubulin (Sus scrofa) (UniProt P02554+P02550); assay: Inhibition of porcine brain tubulin polymerization at 10 uM measured at 30 secs interval for 65 mins by spectrophotometric method
Tubulin (Sus scrofa) [9] = target: T1, Tubulin (Sus scrofa); assay: (§1) Inhibition of porcine brain tubulin polymerization measured at 30 secs interval for 65 mins by spectrophotometric method
Tubulin [10] = target: T2, Tubulin (Sus scrofa, UniProt P02554+P02550); assay: as §1
Tubulin (Sus scrofa) [11] = target: T1, Tubulin (Sus scrofa); assay: (§2) Binding affinity to porcine brain tubulin polymerization by surface plasmon analysis analysis
Tubulin [12] = target: T2, Tubulin; assay: as §2
A-375 [13] = assay: Antitumor activity against human A375 cells xenografted in ip dosed NSG mouse assessed as tumor growth inhibition administered 5 times per week for 14 days; format: functional, organism-based
[14] = Toxicity in human A375 cells xenografted NSG mouse assessed as decrease in body weight loss at 10 to 20 mg/kg, ip administered 5 times per week for 14 days measured 3 times a week during compound dosing; format: organism-based; details: in vivo, 336 h
A-375 [15] = assay: Antitumor activity against human A375 cells xenografted in NSG mouse assessed as reduction in tumor volume at 10 mg/kg, ip administered 5 times per week for 14 days relative to control; format: functional; parameters: scale not given: the % may be the effect or the level left
A-375 [16] = assay: Antitumor activity against human A375 cells xenografted in NSG mouse assessed as reduction in tumor weight at 10 mg/kg, ip administered 5 times per week for 14 days relative to control; format: functional; parameters: scale not given: the % may be the effect or the level left
A-375 [17] = assay: Antitumor activity against human A375 cells xenografted in NSG mouse assessed as reduction in tumor volume at 20 mg/kg, ip administered 5 times per week for 14 days relative to control; format: functional; parameters: scale not given: the % may be the effect or the level left
A-375 [18] = assay: Antitumor activity against human A375 cells xenografted in NSG mouse assessed as reduction in tumor weight at 20 mg/kg, ip administered 5 times per week for 14 days relative to control; format: functional; parameters: scale not given: the % may be the effect or the level left
A-375 [19] = assay: Antitumor activity against human A375 cells xenografted in NSG mouse assessed as reduction in tumor size at 10 to 20 mg/kg, ip administered 5 times per week for 14 days by digital caliper method; format: functional, organism-based
A-375 [20] = assay: Antitumor activity against human A375 cells xenografted in NSG mouse assessed as tumor necrosis at 10 to 20 mg/kg, ip administered 5 times per week for 14 days measured post-last dose by H and E staining-based microscopic analysis; format: functional, organism-based
A-375 [21] = assay: Antitumor activity against human A375 cells xenografted in ip dosed NSG mouse assessed as suppression of tumor growth by measuring decrease in number Ki67 positive cells administered 5 times per week for 14 days measured post-last dose by immunohistochemical analysis; format: functional, organism-based
A-375 [22] = assay: Antitumor activity against human A375 cells xenografted in NSG mouse assessed as disruption of tumor vasculature development by measuring decrease in CD31 staining at 10 to 20 mg/kg, ip administered 5 times per week for 14 days measured post-last dose by immunohistochemical analysis; format: functional, organism-based
A-375 [23] = assay: Antitumor activity against human A375 cells xenografted in NSG mouse assessed as increase in cleaved PARP level at 10 to 20 mg/kg, ip administered 5 times per week for 14 days measured post-last dose by immunohistochemical analysis; format: functional, organism-based

T1 sequence (P02550 whole entry, looked up): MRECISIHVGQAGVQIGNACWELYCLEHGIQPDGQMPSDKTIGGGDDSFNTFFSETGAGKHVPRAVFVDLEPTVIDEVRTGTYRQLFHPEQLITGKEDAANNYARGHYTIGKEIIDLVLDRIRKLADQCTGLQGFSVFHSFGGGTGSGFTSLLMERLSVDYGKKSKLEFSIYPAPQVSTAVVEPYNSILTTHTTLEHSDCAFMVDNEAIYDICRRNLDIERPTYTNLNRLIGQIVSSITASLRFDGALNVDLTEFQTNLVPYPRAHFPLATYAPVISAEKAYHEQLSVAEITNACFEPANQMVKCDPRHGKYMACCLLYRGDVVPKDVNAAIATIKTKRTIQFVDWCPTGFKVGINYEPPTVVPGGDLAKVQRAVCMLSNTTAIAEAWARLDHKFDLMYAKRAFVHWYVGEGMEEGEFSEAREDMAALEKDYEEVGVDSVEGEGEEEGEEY
T1 sequence (P02554 whole entry, looked up): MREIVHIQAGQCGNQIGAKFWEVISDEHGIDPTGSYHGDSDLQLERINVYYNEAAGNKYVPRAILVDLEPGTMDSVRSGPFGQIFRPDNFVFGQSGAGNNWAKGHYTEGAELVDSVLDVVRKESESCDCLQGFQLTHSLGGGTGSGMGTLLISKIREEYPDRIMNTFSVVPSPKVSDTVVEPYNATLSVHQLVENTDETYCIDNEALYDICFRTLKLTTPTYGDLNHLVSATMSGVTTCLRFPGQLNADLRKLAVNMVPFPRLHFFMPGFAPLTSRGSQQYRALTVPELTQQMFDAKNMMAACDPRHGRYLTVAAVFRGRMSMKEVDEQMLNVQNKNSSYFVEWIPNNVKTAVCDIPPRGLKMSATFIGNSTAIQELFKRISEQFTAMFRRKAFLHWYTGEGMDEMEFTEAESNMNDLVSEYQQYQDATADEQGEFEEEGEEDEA

Row | SMILES | IC50 (PC-3) [nM] | IC50 [1] [nM] | IC50 [2] [nM] | IC50 [3] [nM] | IC50 (MDA-MB-231) [nM] | IC50 (MDA-MB-453) [nM] | IC50 (SK-BR-3) [nM] | IC50 (A-375 [4]) [nM] | IC50 (M14) [nM] | IC50 (RPMI-7951) [nM] | IC50 (DU-145) [nM] | inhibition (Tubulin (Sus scrofa) [8]) | other results
1 | CC(=O)O[C@H]1C(=O)[C@@]2(C)[C@H]([C@H](OC(=O)c3ccccc3)[C@]3(O)C[C@H](OC(=O)[C@H](O)[C@@H](NC(=O)c4ccccc4)c4ccccc4)C(C)=C1C3(C)C)[C@]1(OC(C)=O)CO[C@@H]1C[C@@H]2O [PACLITAXEL] | 1.9 | 148 | > 1000 | 200 |  |  |  |  |  |  |  |  | 
2 | COc1cc(C(=O)c2cccc(-c3ccc(C)c(O)c3)n2)cc(OC)c1OC | 1.7 | 2.5 | 2.8 | 1.4 | 1.7 | 1.2 | 2.8 | 1.5 | 0.9 to 1.7 | 1.7 | 3.7 | Active | Ratio IC50 [5]: 1.5; Ratio IC50 [6]: 0.8; Ratio IC50 [7]: 1.5; inhibition (Tubulin (Sus scrofa) [9]): Dose-dependent effect; IC50 (Tubulin [10]): 5000 to 10000 nM; Activity (Tubulin (Sus scrofa) [11]): Dose-dependent effect; Kd (Tubulin [12]): 2660 nM; TGI (A-375 [13]): Dose-dependent effect; Activity [14]: Non-Toxic; Activity (A-375 [15]): 58.54%; Activity (A-375 [16]): 48.81%; Activity (A-375 [17]): 88.5%; Activity (A-375 [18]): 83.33%; Activity (A-375 [19]): Active; Activity (A-375 [20]): Active; Activity (A-375 [21]): Dose-dependent effect; Activity (A-375 [22]): Active; Activity (A-375 [23]): Active
3 | COc1cc(C(=O)c2cccc(-c3ccc(C)cc3)n2)cc(OC)c1OC |  |  |  |  | 4.9 | 5 | 4.8 | 5.9 | 4.9 | 7.2 |  | Active | 
4 | COc1cc2c(c(OC)c1OC)-c1ccc(OC)c(=O)cc1[C@@H](NC(C)=O)CC2 [COLCHICINE] | 19 | 56.3 | > 1000 | 1400 |  |  |  |  | 9.3 |  | 17.3 |  | 
